Data from DBAASP.
In brackets after ≈: the same amount, converted by molar mass.

Assays:
Test in all cases: ≥ marks a high value that may be exact or a test limit, other limits are often not marked, values filed in µg/mL are converted to µM
[1] = system: Escherichia coli ATCC 25922
[2] = system: Candida albicans ATCC 2002
[3] = system: Pseudomonas aeruginosa CMCCB 10104
[4] = system: Staphylococcus aureus ATCC 25923
[5] = system: Pseudomonas aeruginosa ATCC 27853
[6] = system: Klebsiella pneumoniae ATCC 700603
[7] = system: Staphylococcus epidermidis ATCC 12228
[8] = system: Acinetobacter baumannii ATCC 19606
[9] = system: Bacillus subtilis ATCC 23857
[10] = system: Enterococcus faecalis ATCC 29212
[11] = system: Pseudomonas aeruginosa ATCC 9027
[12] = system: Staphylococcus aureus ATCC 6538
[13] = system: Pseudomonas aeruginosa PAO1
[14] = system: Salmonella enterica serovar Typhimurium
[15] = system: Escherichia coli K12 MG1655

SMILES | MIC [1] | MIC [2] | MIC [3] | MIC [4] | MIC [9] | further results
CC[C@H](C)[C@H](NC(=O)[C@H](CC(N)=O)NC(=O)[C@H](CCCCN)NC(=O)[C@H](CCCCN)NC(=O)[C@@H]1CCCN1C(=O)[C@H](Cc1ccccc1)NC(=O)[C@@H](NC(=O)[C@@H](N)Cc1ccccc1)[C@@H](C)CC)C(=O)N[C@H](C(=O)N[C@@H](CC(N)=O)C(=O)N[C@@H](CO)C(=O)N[C@@H](CC(C)C)C(=O)N[C@@H](Cc1ccccc1)C(=O)NCC(=O)N[C@@H](CCCN=C(N)N)C(=O)O)[C@@H](C)CC [FIFPKKNIINSLFGR] | > 70.2 µM | 8.92 µM (≈ 16 µg/mL) | 8.92 µM (≈ 16 µg/mL) | 8.92 µM (≈ 16 µg/mL) | – | –
CC[C@H](C)[C@H](NC(=O)[C@H](CCCN=C(N)N)NC(=O)[C@H](CCCN=C(N)N)NC(=O)[C@H](Cc1ccccc1)NC(=O)[C@H](Cc1ccccc1)NC(=O)CN)C(=O)N[C@@H](CCCN=C(N)N)C(=O)N[C@H](C(=O)N[C@@H](Cc1ccccc1)C(=O)N[C@@H](Cc1ccccc1)C(N)=O)[C@@H](C)O [GFFRRIRTFF] | 32 µM (≈ 43.1 µg/mL) | – | – | 8 µM (≈ 10.8 µg/mL) | 8 µM (≈ 10.8 µg/mL) | MIC [5]: 4 µM (≈ 5.38 µg/mL); MIC [6]: 32 µM (≈ 43.1 µg/mL); MIC [7]: 32 µM (≈ 43.1 µg/mL); MIC [8]: 32 µM (≈ 43.1 µg/mL); MIC [10]: 32 µM (≈ 43.1 µg/mL)
CC[C@H](C)[C@H](NC(=O)CN)C(=O)N[C@@H](CC(C)C)C(=O)N[C@@H](CCCCN)C(=O)N[C@@H](CCCCN)C(=O)N[C@H](C(=O)N[C@@H](CC(C)C)C(=O)N[C@@H](CCCCN)C(=O)N[C@@H](CCCCN)C(=O)N[C@H](C(=O)N[C@@H](CC(C)C)C(=O)N[C@@H](CCCCN)C(=O)N[C@@H](CCCCN)C(=O)N[C@@H](CC(C)C)C(N)=O)[C@@H](C)CC)[C@@H](C)CC [GILKKILKKILKKL] | 9.3 µM (≈ 15.2 µg/mL) | – | – | – | 1.6 µM (≈ 2.62 µg/mL) | MIC [11]: 5.8 µM (≈ 9.48 µg/mL); MIC [12]: 5.2 µM (≈ 8.5 µg/mL)
CC[C@H](C)[C@H](NC(=O)[C@H](CC(C)C)NC(=O)[C@@H](NC(=O)[C@H](Cc1ccccc1)NC(=O)[C@H](CC(C)C)NC(=O)CN)[C@@H](C)O)C(=O)N[C@@H](CCCCN)C(=O)NCC(=O)N[C@@H](C)C(=O)N[C@@H](Cc1ccc(O)cc1)C(=O)N[C@@H](CCCCN)C(=O)N[C@@H](CC(C)C)C(=O)N[C@@H](CC(=O)O)C(=O)N[C@@H](C)C(=O)N1CCC[C@H]1C(=O)N[C@H](C(=O)N[C@H](C(=O)N[C@@H](C)C(=O)N[C@@H](CS)C(=O)N[C@@H](CC(N)=O)C(=O)O)C(C)C)[C@@H](C)O [GLFTLIKGAYKLDAPTVACN] | 19.2 µM (≈ 40.2 µg/mL) | 9.59 µM (≈ 20.1 µg/mL) | 19.2 µM (≈ 40.2 µg/mL) | 9.59 µM (≈ 20.1 µg/mL) | – | –
CC[C@H](C)[C@H](NC(=O)CNC(=O)[C@H](CC(=O)O)NC(=O)[C@H](CC(C)C)NC(=O)[C@H](CC(C)C)NC(=O)CN)C(=O)N[C@@H](CC(C)C)C(=O)N[C@@H](CC(N)=O)C(=O)N[C@@H](C)C(=O)N[C@@H](CC(N)=O)C(=O)N[C@@H](Cc1ccccc1)C(=O)N[C@@H](CC(N)=O)C(=O)N[C@@H](C)C(=O)N[C@@H](C)C(=O)N[C@@H](CCCCN)C(=O)N[C@@H](CO)C(=O)N[C@@H](C)C(=O)NCC(=O)N[C@H](C(=O)N[C@@H](CO)C(=O)N[C@H](C(=O)N[C@@H](CC(C)C)C(=O)N[C@@H](CC(N)=O)C(=O)N[C@@H](C)C(=O)N[C@@H](CC(C)C)C(=O)N[C@@H](CO)C(=O)N[C@H]1CSSC[C@@H](C(=O)O)NC(=O)[C@H]([C@@H](C)O)NC(=O)[C@H](CCCCN)NC(=O)[C@H](CO)NC(=O)[C@H](CC(C)C)NC(=O)[C@H](CCCCN)NC1=O)C(C)C)[C@@H](C)O [GLLDGILNANFNAAKSAGTSVLNALSCKLSKTC] | 9.28 µM (≈ 30.6 µg/mL) | 9.28 µM (≈ 30.6 µg/mL) | 9.28 µM (≈ 30.6 µg/mL) | 9.28 µM (≈ 30.6 µg/mL) | – | –
CC[C@H](C)[C@H](NC(=O)[C@H](CCCCN)NC(=O)[C@@H](NC(=O)[C@@H](NC(=O)[C@H](CCCCN)NC(=O)[C@H](CCCCN)NC(=O)[C@@H](NC(=O)[C@@H](NC(=O)[C@H](CCCCN)NC(=O)[C@H](CCCCN)NC(=O)[C@@H](NC(=O)[C@@H](N)CCCCN)[C@@H](C)CC)[C@@H](C)CC)[C@@H](C)CC)[C@@H](C)CC)[C@@H](C)CC)C(N)=O [KIKKIIKKIIKI] | 219 µM (≈ 321 µg/mL) | – | – | – | 15.1 µM (≈ 22.1 µg/mL) | MIC [11]: 9 µM (≈ 13.2 µg/mL); MIC [12]: 339 µM (≈ 497 µg/mL)
CC[C@H](C)[C@H](NC(=O)[C@H](CCCN=C(N)N)NC(=O)[C@H](Cc1c[nH]c2ccccc12)NC(=O)[C@H](CCC(N)=O)NC(=O)[C@@H](N)CCCCN)C(=O)N[C@@H](CCCN=C(N)N)C(=O)N[C@H](C(=O)N[C@@H](CS)C(=O)N[C@H](C(=O)N[C@H](C(=O)N[C@@H](CCCN=C(N)N)C(=O)N[C@@H](C)C(=O)O)[C@@H](C)CC)C(C)C)C(C)C [KQWRIRVCVIRA] | 20.9 µM (≈ 32 µg/mL) | – | – | 20.9 µM (≈ 32 µg/mL) | – | MIC [13]: 41.9 µM (≈ 64 µg/mL); MIC [14]: 20.9 µM (≈ 32 µg/mL)
CC[C@H](C)[C@H](NC(=O)[C@H](CC(=O)O)NC(=O)[C@H](Cc1c[nH]c2ccccc12)NC(=O)[C@H](CO)NC(=O)[C@H](CCCN=C(N)N)NC(=O)[C@@H](N)CCCCN)C(=O)N[C@H](C(=O)N[C@@H](CCCCN)C(=O)N[C@@H](CCCCN)C(=O)N[C@@H](Cc1ccc(O)cc1)C(=O)N[C@H](C(=O)NCC(=O)N[C@H](C(=O)N[C@H](C(=O)N[C@H](C(=O)NCC(=O)N[C@H](C(=O)N[C@H](C(=O)N[C@@H](Cc1cnc[nH]1)C(=O)O)[C@@H](C)CC)[C@@H](C)O)C(C)C)C(C)C)C(C)C)C(C)C)C(C)C [KRSWDIVKKYVGVVVGTIH] | – | – | – | – | – | MIC [15]: ≥ 58.6 µM
CC[C@H](C)[C@H](NC(=O)[C@H](CCCN=C(N)N)NC(=O)[C@H](CCCCN)NC(=O)[C@H](Cc1ccccc1)NC(=O)[C@H](Cc1c[nH]c2ccccc12)NC(=O)[C@@H](N)CCCCN)C(=O)N[C@@H](CCCCN)C(=O)N[C@H](C(=O)N[C@@H](Cc1ccccc1)C(=O)N[C@@H](Cc1c[nH]c2ccccc12)C(N)=O)[C@@H](C)O [KWFKRIKTFW] | 16 µM (≈ 23 µg/mL) | – | – | 16 µM (≈ 23 µg/mL) | 16 µM (≈ 23 µg/mL) | MIC [5]: 8 µM (≈ 11.5 µg/mL); MIC [6]: 32 µM (≈ 46 µg/mL); MIC [7]: 128 µM (≈ 184 µg/mL); MIC [8]: 128 µM (≈ 184 µg/mL); MIC [10]: 64 µM (≈ 92.1 µg/mL)
CC[C@H](C)[C@H](NC(=O)[C@H](CCCCN)NC(=O)[C@H](CCCCN)NC(=O)[C@H](C)NC(=O)[C@@H](NC(=O)[C@H](C)NC(=O)[C@H](CC(C)C)NC(=O)[C@H](CC(C)C)NC(=O)[C@H](C)NC(=O)[C@H](CCCCN)NC(=O)[C@H](C)NC(=O)[C@H](CC(N)=O)NC(=O)[C@@H](N)CC(C)C)C(C)C)C(=O)N[C@@H](CC(C)C)C(N)=O [LNAKALLAVAKKIL] | 8 µM (≈ 11.7 µg/mL) | – | – | 32 µM (≈ 46.9 µg/mL) | 8 µM (≈ 11.7 µg/mL) | MIC [11]: 32 µM (≈ 46.9 µg/mL); MIC [6]: 32 µM (≈ 46.9 µg/mL)
CSCC[C@H](NC(=O)[C@H](CCC(=O)O)NC(=O)[C@H](C)NC(=O)[C@H](C)NC(=O)[C@@H](NC(=O)CNC(=O)[C@H](C)NC(=O)[C@@H](NC(=O)[C@H](Cc1ccccc1)NC(=O)[C@@H]1CCCN1C(=O)[C@@H](N)CC(C)C)C(C)C)C(C)C)C(=O)N[C@@H](CCSC)C(=O)N[C@@H](CCC(N)=O)C(=O)N[C@@H](Cc1cnc[nH]1)C(=O)N[C@H](C(=O)N[C@@H](Cc1ccc(O)cc1)C(=O)N[C@H]1CSSC[C@@H](C(=O)O)NC(=O)[C@H](CCCCN)NC(=O)[C@H](CCCCN)NC(=O)[C@H](CO)NC(=O)[C@H](C)NC(=O)[C@H](C)NC1=O)C(C)C [LPFVAGVAAEMMQHVYCAASKKC] | 2.16 µM (≈ 5.3 µg/mL) | 4.32 µM (≈ 10.6 µg/mL) | 17.3 µM (≈ 42.4 µg/mL) | 4.32 µM (≈ 10.6 µg/mL) | – | –
CC[C@H](C)[C@H](NC(=O)[C@H](C)NC(=O)[C@H](CC(C)C)NC(=O)[C@H](CC(N)=O)NC(=O)[C@H](CCCCN)NC(=O)[C@H](CC(C)C)NC(=O)[C@@H](NC(=O)[C@H](CC(=O)O)NC(=O)[C@H](CC(C)C)NC(=O)[C@H](Cc1ccccc1)NC(=O)[C@@H](N)CO)[C@@H](C)O)C(=O)N[C@@H](CO)C(=O)N[C@@H](C)C(=O)N[C@@H](C)C(=O)N[C@@H](CCCCN)C(=O)NCC(=O)N[C@@H](C)C(=O)NCC(=O)N[C@@H](CCC(N)=O)C(=O)N[C@@H](CO)C(=O)N[C@H](C(=O)N[C@@H](CC(C)C)C(=O)N[C@@H](CO)C(=O)N[C@H](C(=O)N[C@@H](CC(C)C)C(=O)N[C@@H](CO)C(=O)N[C@H]1CSSC[C@@H](C(=O)O)NC(=O)[C@H]([C@@H](C)O)NC(=O)[C@H](CCCCN)NC(=O)[C@H](CO)NC(=O)[C@H](CC(C)C)NC(=O)[C@H](CCCCN)NC1=O)[C@@H](C)O)C(C)C [SFLDTLKNLAISAAKGAGQSVLSTLSCKLSKTC] | 3.9 µM (≈ 13.1 µg/mL) | 3.9 µM (≈ 13.1 µg/mL) | 3.9 µM (≈ 13.1 µg/mL) | 3.9 µM (≈ 13.1 µg/mL) | – | –
CC[C@H](C)[C@H](NC(=O)[C@H](CCCN=C(N)N)NC(=O)[C@@H](NC(=O)[C@H](CCCN=C(N)N)NC(=O)[C@H](Cc1c[nH]c2ccccc12)NC(=O)[C@H](CCC(N)=O)NC(=O)[C@@H](N)C(C)C)[C@@H](C)CC)C(=O)N[C@@H](C)C(=O)N[C@H](C(=O)N[C@H](C(=O)N[C@@H](CCCN=C(N)N)C(=O)N[C@@H](CCCCN)C(=O)O)[C@@H](C)CC)C(C)C [VQWRIRIAVIRK] | 10.4 µM (≈ 16 µg/mL) | – | – | 10.4 µM (≈ 16 µg/mL) | – | MIC [13]: 20.8 µM (≈ 32 µg/mL); MIC [14]: 10.4 µM (≈ 16 µg/mL)
